Source: ChEMBL document CHEMBL1142182, “Novel Ambler class A beta-lactamase LAP-1 and its association with the plasmid-mediated quinolone resistance determinant QnrS1” (Antimicrob Agents Chemother, 2007)
In brackets after ≈: the same amount, converted by molar mass.

Columns and labels:
Escherichia coli [1] = assay: Antibacterial activity against Escherichia coli DH10B expressing recombinant beta lactamase LAP1; assay type: functional
Enterobacter cloacae [2] = assay: Antibacterial activity against Enterobacter cloacae S3 isolate by agar dilution technique; assay type: functional
Escherichia coli [3] = assay: Antibacterial activity against Escherichia coli DH10B; assay type: functional
Enterobacter cloacae [4] = tested on: Enterobacter cloacae
Description: Activity of Enterobacter cloacae S3 isolate beta lactamase LAP1 expressed in Escherichia coli DH10B

Enterobacter cloacae [5] = tested on: Enterobacter cloacae; remark: listed apart in the source
Description: Ratio of kcat to Km of Enterobacter cloacae S3 isolate beta lactamase LAP1 expressed in Escherichia coli DH10B

[6] = Inhibition of Enterobacter cloacae S3 isolate beta lactamase LAP1 expressed in Escherichia coli DH10B

Compound	MIC (Escherichia coli [1]) [µg/mL]	MIC (Enterobacter cloacae [2]) [µg/mL]	MIC (Escherichia coli [3]) [µg/mL]	Km (Enterobacter cloacae [4]) [µM]	kcat/Km (Enterobacter cloacae [5]) [M⁻¹ s⁻¹]	IC50 [6] [nM]
CO/N=C(\C(=O)N[C@@H]1C(=O)N2C(C(=O)[O-])=C(C[N+]3(C)CCCC3)CS[C@H]12)c1csc(N)n1	0.12					
CC1(C)S[C@@H]2[C@H](NC(=O)[C@H](N)c3ccc(O)cc3)C(=O)N2[C@H]1C(=O)O [AMOXICILLIN]	512	> 512	4 (≈ 10.9 µM)	180	3.3e+06	
CO/N=C(\C(=O)N[C@@H]1C(=O)N2C(C(=O)O)=C(COC(C)=O)CS[C@H]12)c1csc(N)n1 [CEFOTAXIME]	0.12	0.25 (≈ 0.549 µM)	0.12 (≈ 0.263 µM)			
CO[C@@]1(NC(=O)Cc2cccs2)C(=O)N2C(C(=O)O)=C(COC(N)=O)CS[C@@H]21 [CEFOXITIN]	4	256 (≈ 599 µM)	4 (≈ 9.36 µM)			
CC(C)(O/N=C(\C(=O)N[C@@H]1C(=O)N2C(C(=O)[O-])=C(C[n+]3ccccc3)CS[C@H]12)c1csc(N)n1)C(=O)O [CEFTAZIDIME]	0.12	0.5 (≈ 0.915 µM)	0.06 (≈ 0.11 µM)			
CO/N=C(\C(=O)N[C@@H]1C(=O)N2C(C(=O)O)=C(COC(N)=O)CS[C@H]12)c1ccco1 [CEFUROXIME]	8	256 (≈ 603 µM)	2 (≈ 4.71 µM)	> 2000	> 50000	
CC(=O)OCC1=C(C(=O)O)N2C(=O)[C@@H](NC(=O)Cc3cccs3)[C@H]2SC1 [CEPHALOTHIN]	16	> 512	4 (≈ 10.1 µM)	400	90000	
C[C@@H](O)[C@H]1C(=O)N2C(C(=O)O)=C(SCCNC=N)C[C@H]12 [IMIPENEM ANHYDROUS]		0.12 (≈ 0.401 µM)				
CC1(C)S[C@@H]2[C@H](NC(=O)Cc3ccccc3)C(=O)N2[C@H]1C(=O)O [PENICILLIN G]				20	1e+07	80
CCN1CCN(C(=O)N[C@@H](C(=O)N[C@@H]2C(=O)N3[C@@H]2SC(C)(C)[C@@H]3C(=O)O)c2ccccc2)C(=O)C1=O [PIPERACILLIN]	4	16 (≈ 30.9 µM)	1 (≈ 1.93 µM)	50	1.5e+06	
CC1(C)S[C@@H]2[C@H](NC(=O)[C@H](C(=O)O)c3ccsc3)C(=O)N2[C@H]1C(=O)O [TICARCILLIN]	512	> 512	4 (≈ 10.4 µM)			
